Results on four compounds are retold here after US20100184809A1, “Heterocyclic FXR Binding Compounds” (PHENEX PHARMACEUTICALS AG, priority 2006, published 2010).

Converted amounts (≈) assume the structure as drawn.

A word on the Papp A→B: it is how fast a substance crosses the layer from the apical side. High values mean ready permeation, low ones poor permeation. A word on the solubility: it is the dissolved amount per volume that the medium holds. Broadly, the melting point is the temperature, or range, at which the solid turns liquid.

A short description of one data set: Caco-2 permeability. The class given is in vitro ADME. The note with it: human, apical to basolateral. As for the experimental part:
Caco-2 cells are widely used as an in vitro model for predicting human drug absorption. The Caco-2 cell line is derived from a human colorectal carcinoma, and when cultured, the cells spontaneously differentiate into monolayers of polarised enterocytes. The cells are seeded on Transwell™ plates and form a confluent monolayer over 20 days prior to the experiment. On day 20, the test compound is added to the apical side of the membrane and the transport of the compound across the monolayer is monitored over a 2 hour time period. To study drug efflux, it is also necessary to investigate transport of the compound from the basolateral compartment to the apical compartment. The permeability coefficient (Papp) is calculated from the following equation: […]
Where dQ/dt is the rate of permeation of the drug across the cells, CO is the donor compartment concentration at time zero and A is the area of the cell monolayer.
In general terms: Caco-2 cells form a polarised layer with tight junctions and transporters.

Data set [1] is described as follows: Aqueous solubility assay, Protocol B, shake-flask method. The class given is physicochemical. The note with it: aqueous buffer, 10 mM PBS buffer pH 7.4, 1% MeOH, room temperature, read-out: Aqueous solubility pH 7.4 (μM) (±standard deviation), shake-flask method. On the procedure:
Protocol B, shake-flask method:
Sample preparation: Sample and standard solution preparation is performed by mixing equal volumes of acetonitrile containing the internal standard (1 μM final concentration) with sample and calibration standard solutions (100 μl). After vigorously shaking (10 seconds) the samples are centrifuged (6000 g) for 5 minutes at 20° C. Aliquots of the particle-free supernatants are transferred to 200 μl sample vials and subsequently subjected to LC-MS/MS. Assay procedure: Test concentration was 100 μM in 10 mM PBS buffer pH 7.4 with a final MeOH concentration of 1%. The volume of the incubation solution was 500 μl. Depending on each compound's solubility in MeOH, the stock concentration and the incubation concentration was adapted. The test solutions in quadruplicates were shaken at 300 rpm over a 20 hours period at room temperature, followed by centrifugation at 20000 g for 30 minutes to separate the solid phase. 100 μl of particle free sample are added to 100 μl acetonitrile containing the internal standard. The aqueous solubility of the compounds was determined by measuring the concentration of the PBS buffer supernatant by HPLC-MS/MS.

Data set [2] is described as follows: Rat microsomal stability assay. The class given is in vitro ADME. Conditions: liver microsomes, 37° C., NADPH, 45 minute, read-out: Rat liver microsome clearance. On the procedure:
Compound stability towards rat liver microsomes was determined as follows: The microsomes are incubated with the test compound at 37° C. in the presence of the co-factor, NADPH, which initiates the reaction. The reaction is terminated by the addition of methanol. Following centrifugation, the supernatant is analysed on the LC-MS/MS. The disappearance of test compound is monitored over a 45 minute time period. The In peak area ratio (compound peak area/internal standard peak area) is plotted against time and the gradient of the line determined. Finally, Intrinsic clearance CLint is computed by the following equations: elimination rate konstant (k)=−gradient; t1/2 (min)=0.693/k; V (μl/mg)=volume of incubation (μl)/protein in incubation (mg); CLint (μl/min/mg protein)=V*0.693/t1/2.
(Microsomes from liver hold many membrane-bound enzymes, among them those of drug oxidation.)

Data set [3] is described as follows: Pharmacokinetic parameters in C57/BLKS/J(mLepr^db/db) mice (plasma concentration after peroral gavage). Conditions: mouse, oral, perorally by gavage 25 mg/kg, male C57/BLKS/J(mLepr^db/db) mice, read-out: mean plasma conc. The class given is in vivo. On the procedure:
Information on the rate and extent of absorption of the test compounds were generated using two distinct animal models, C57/BI/6J and C57/BLKS/J(mLepr^db/db) mice. Compounds were applied perorally by gavage at 10 mg/kg each to male 8 weeks old C57BL/6 mice and plasma concentrations of the test items were determined by LC-MS/MS (Table 11). Alternatively, compounds were applied perorally by gavage at 25 mg/kg each to 16 weeks old male C57/BLKS/J(mLepr^db/db) mice and plasma concentrations of the test items were determined 120 min after gavage by LC-MS/MS (Table 12).
A solution of 20 mg/ml of each test item was produced by diluting them in the vehicle, 30% HPBCD (hydroxypropyl-beta-cyclodextrin) in 20 mM phosphate buffer pH7.0 (v/w). These solutions were stirred overnight at room temperature and heated to 60° C. for 10 minutes, resulting in a full solubilization. The application was performed by administrating the solution perorally to the mice, with an application volume of 10 ml/kg. For each time point five mice were used. Blood samples were obtained by sacrificing animals for each time point followed by cardiac puncture. […] An aliquot of the particle-free supernatant was transferred to 200 μl sampler vials and subsequently subjected to LC MS/MS for quantification.

`Cc1nc(OCc2c(-c3c(Cl)cccc3Cl)noc2C(C)C)ccc1N(C)S(=O)(=O)c1ccc(C(=O)O)cc1` [Example 4, 4-(N-(6-((3-(2,6-dichlorophenyl)-5-isopropylisoxazol-4-yl)methoxy)-2-methylpyridin-3-yl)—N-methylsulfamoyl)benzoic acid] gave a Papp A→B at 2 h in the data set “Caco-2 permeability” of 30 ×10⁻⁶ cm/s.
As to `CC(C)c1onc(-c2c(Cl)cccc2Cl)c1COc1ccc(/C=C/c2cccc(C(=O)O)c2)c(Cl)c1` [Compound B, reference compound], in data set [1], the solubility at 20 h amounted to 17.7 µM (≈ 9.61 µg/mL). Also, the microsomal CLint in data set [2] turned out to be 310 µL/min/mg. Moreover, the concentration at 120 min in data set [3] was 164 ng/mL.
For `CC(C)c1onc(-c2c(Cl)cccc2Cl)c1COc1ccc(N(C)Cc2ccc(C(=O)O)cc2)c(C(F)(F)F)n1` [Example 28, 4(((6-((3-(2,6-Dichlorophenyl)-5-isopropylisoxazol-4-yl)methoxy)-2-(trifluoromethyl)pyridin-3-yl)(methyl)amino)methyl)benzoic acid], the melting point fell in the range of 96.1 to 97.1 °C. In addition, the concentration at 120 min in data set [3] was 287 ng/mL.
As to `CC(C)c1onc(-c2c(Cl)cccc2Cl)c1COc1ccc(N(C)C(=O)c2ccc(C(=O)O)cc2)c(C(F)(F)F)n1` [Example 7, N-{6-[3-(2,6-dichloro-phenyl)-5-isopropyl-isoxazol-4-ylmethoxy]-2-trifluoromethyl-pyridin-3-yl}-N-methyl-terephthalamic acid], the Papp A→B at 2 h in the data set “Caco-2 permeability” was found to be 32 ×10⁻⁶ cm/s. In addition, the microsomal CLint in data set [2] is 45 µL/min/mg.
